Test results published in patent US6066642A, “Dihydropyridine-, pyridine-, benzopyran-4-one- and triazoloquinazoline derivative, their preparation and their use as adenosine receptor antagonists” (priority 1998, dated 2000).
Like-named read-outs stand apart in the source and are kept apart here. One block for each compound: values may come before it.

Legend:
human A3 receptors = target: T1, human A3 receptors (Homo sapiens, UniProt P0DMS8); assay: radioligand binding, displacement of specific [125I]AB-MECA binding at human A3 receptors expressed in HEK-293 cells; details: for inhibition at 100 µM: 10^-4 M
T1 construct: expressed in transfected cells; host or cells: HEK-293 cells (membranes)
T1 sequence (P0DMS8 1-318): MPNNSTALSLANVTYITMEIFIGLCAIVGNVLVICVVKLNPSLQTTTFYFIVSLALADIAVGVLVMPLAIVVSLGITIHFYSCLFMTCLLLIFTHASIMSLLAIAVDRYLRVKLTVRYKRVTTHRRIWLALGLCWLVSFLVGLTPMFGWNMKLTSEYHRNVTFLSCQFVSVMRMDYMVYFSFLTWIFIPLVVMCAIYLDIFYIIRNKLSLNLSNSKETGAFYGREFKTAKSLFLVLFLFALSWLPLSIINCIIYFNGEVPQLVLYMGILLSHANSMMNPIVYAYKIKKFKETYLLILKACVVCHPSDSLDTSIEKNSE
Description: A3 receptors expressed in HEK293 cells, in membranes, expressed as
binding displaced at 100 μM.

A2a receptors = target: T2, A2a receptors (Rattus norvegicus, UniProt P30543); assay: radioligand binding, displacement of specific [3H]CGS 21680 binding in rat striatal membranes; details: for inhibition at 100 µM: 10^-4 M
T2 construct: Displacement of specific [^3 H]; from tissue; host or cells: rat striatal membranes
T2 sequence (P30543 whole entry): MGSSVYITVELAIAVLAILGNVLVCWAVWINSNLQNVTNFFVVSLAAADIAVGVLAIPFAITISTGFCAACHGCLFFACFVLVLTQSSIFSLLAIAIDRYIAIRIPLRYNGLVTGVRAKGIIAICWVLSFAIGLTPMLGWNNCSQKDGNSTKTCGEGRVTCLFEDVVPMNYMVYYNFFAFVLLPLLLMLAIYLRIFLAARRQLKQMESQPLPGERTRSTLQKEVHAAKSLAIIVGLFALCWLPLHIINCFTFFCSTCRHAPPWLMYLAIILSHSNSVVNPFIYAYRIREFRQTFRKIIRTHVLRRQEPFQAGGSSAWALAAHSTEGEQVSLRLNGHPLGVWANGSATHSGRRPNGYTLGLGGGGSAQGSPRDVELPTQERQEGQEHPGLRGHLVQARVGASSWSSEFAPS
Description: ^b Displacement of specific [^3 H]
or as a percentage of specific binding displaced at 100 μM.

A1 receptors = target: T3, A1 receptors (Rattus norvegicus, UniProt P25099); assay: biochemical; format: binding; details: for inhibition at 100 µM: 10^-4 M; for Ki: rat brain membranes, read-out: Ki rA1
T3 sequence (P25099 1-326): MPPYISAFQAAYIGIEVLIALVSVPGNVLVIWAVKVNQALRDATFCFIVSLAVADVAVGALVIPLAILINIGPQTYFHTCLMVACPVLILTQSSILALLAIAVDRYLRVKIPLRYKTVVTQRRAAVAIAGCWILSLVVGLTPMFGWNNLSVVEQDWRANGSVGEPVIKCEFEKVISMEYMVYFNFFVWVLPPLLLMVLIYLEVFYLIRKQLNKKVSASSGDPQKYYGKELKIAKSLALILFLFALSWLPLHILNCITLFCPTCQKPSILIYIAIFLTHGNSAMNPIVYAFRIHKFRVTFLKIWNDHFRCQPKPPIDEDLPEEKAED
Description: ^a Displacement of specific [^3 H] PIA binding in rat brain
percentage of specific binding displaced at 100 μM.

[1] = Table 3, [3H]CGS 21680, rat striatal membranes, read-out: Ki rA2a
[2] = Table 16, [125I]AB-MECA, HEK membranes, read-out: Ki hA3
[3] = Table 11, [125I]AB-MECA, HEK membranes, read-out: Ki hA3
[4] = Table 12, read-out: % inhibition rA1
[5] = Table 12, read-out: % inhibition rA2A
[6] = Table 12, read-out: displacement of specific binding rA1
[7] = Table 11, read-out: displacement of specific binding rA1
[8] = Table 11, read-out: displacement of specific binding rA2A
[9] = Table 11, read-out: % inhibition rA1
[10] = Table 11, read-out: % inhibition rA2A
[11] = Table 15, [125I]AB-MECA, HEK membranes, read-out: Ki hA3

- Ki (human A3 receptors; Table 3, [125I]AB-MECA, HEK-293 membranes, read-out: Ki hA3): 7270 ± 1880 nM
- Ki (A2a receptors; [1]): 26800 nM
Compound: CCOc1ccc(-c2oc3cc(OCC)cc(OCC)c3c(=O)c2OCC)c(OCC)c1 [Compound 8, 2',3,4',5,7-Pentaethoxyflavone]

- Ki (human A3 receptors; [2]): 1 nM
Compound: Nc1ccc(CC(=O)Nc2nc3ccc(Cl)cc3c3nc(-c4ccco4)nn23)cc1I [Compound 164]

Compound: O=c1cc(-c2ccccc2)oc2cccc(O)c12 [Compound 25, reference compound]
- inhibition at 100 µM (human A3 receptors; Table 6, read-out: % inhibition hA3): 47 ± 12%
- Ki (A2a receptors; Table 6, [3H]CGS 21680, rat striatal membranes, read-out: K2 (rA2a)): 6200 ± 1240 nM

Compound: O=c1c(-c2ccc(O)cc2)coc2cc(O)cc(O)c12 [Compound 40, genistein, reference compound]
- inhibition at 100 µM (human A3 receptors; Table 7, read-out: % of specific binding displaced hA3): 20 ± 2%

- Ki (human A3 receptors; [3]): < 100 nM
Compound: CCOC(=O)C1=C(C)NC(c2ccccc2)=C(C(=O)OCc2ccccc2)C1C#Cc1ccc(N)cc1 (centres unmarked) [Compound 103]

- Ki (human A3 receptors; [2]): 29.7 ± 7.7 nM
- Ki (A2a receptors; read-out: Ki rA2A): 28.3 ± 10.3 nM
Compound: O=C(CCc1ccccc1)Nc1nc2ccc(Cl)cc2c2nc(-c3ccco3)nn12 [Compound 160]

Compound: CCOC(=O)C1=C(C)NC(c2ccccc2)=C(C(=O)OCC)C1C#Cc1cccc(C)c1 (racemic) [Compound 120, 3,5-Diethyl 2-methyl-4-(3-methylphenylethynyl)-6-phenyl-1,4-(±)-dihydropyridine-3,5-dicarboxylate]
- inhibition at 100 µM (A1 receptors; [4]): 41%
- inhibition at 100 µM (A2a receptors; Table 12, read-out: displacement of specific binding rA2A): < 10%

Compound: CCOC(=O)C1=C(C)NC(c2ccccc2)=C(C(=O)OCC)C1/C=C/c1ccc([N+](=O)[O-])cc1 (centres unmarked) [Compound 118]
- inhibition at 100 µM (A1 receptors; [4]): 31%
- inhibition at 100 µM (A2a receptors; [5]): 26%

Compound: COc1c2ccoc2cc2oc(C)cc(=O)c12 [Compound 17, 4-methoxy-7-methyl-5H-furo[3,2-g][1]-benzopyrano-5-one, reference compound]
- inhibition at 100 µM (A1 receptors; Table 5, read-out: % of specific binding displaced rA1): 36 ± 3%
- Ki (A2a receptors; Table 5, [3H]CGS 21680, rat striatal membranes, read-out: Ki rA2a): 42400 ± 11900 nM

- Ki (human A3 receptors; [3]): < 100 nM
Compound: CCOC(=O)C1=C(C)NC(c2ccccc2)=C(C(=O)OCc2ccccc2)C1C#Cc1ccc(N)c(I)c1 (centres unmarked) [Compound 104]

Compound: C=CCOC(=O)C1=C(C)NC(c2ccccc2)=C(C(=O)OCC)C1/C=C/c1ccc([N+](=O)[O-])cc1 (centres unmarked) [Compound 117]
- inhibition at 100 µM (A1 receptors; [6]): < 10%
- inhibition at 100 µM (A2a receptors; [5]): 15%

Compound: CCOC(=O)C1=C(c2ccccc2)NC(C)=C(C(=O)OCc2ccccc2)C1/C=C/c1ccc([N+](=O)[O-])cc1 (centres unmarked) [Compound 106]
- inhibition at 100 µM (A1 receptors; [7]): < 10%
- inhibition at 100 µM (A2a receptors; [8]): < 10%

Compound: CCOC(=O)C1=C(C)NC(c2ccccc2)=C(C(=O)OCc2ccccc2)C1/C=C/c1ccc([N+](=O)[O-])cc1 (centres unmarked) [Compound 100]
- inhibition at 100 µM (A1 receptors; [9]): 33%
- inhibition at 100 µM (A2a receptors; [8]): < 10%

- Ki (A1 receptors; Table 9, [3H]PIA): 19600 nM
- Ki (A2a receptors; Table 9, [3H]CGS 21680, rat striatal membranes, read-out: Ki rA2A): 63800 nM
Compound: COC(=O)C1=C(C)NC(C)=C(C(=O)OCCN(C)Cc2ccccc2)C1c1cccc([N+](=O)[O-])c1 (centres unmarked) [Compound 63, reference compound]
- greater affinity to A1 than A2a adenosine receptors (A1 receptors; selectivity in words): greater affinity to A1 adenosine receptors than A2a receptors

Compound: CCOC(=O)C1=C(c2ccccc2)NC(C)=C(C(=O)OCc2ccccc2)C1C#Cc1ccccc1 (centres unmarked) [Compound 107]
- inhibition at 100 µM (A1 receptors; [9]): 24 ± 4%
- inhibition at 100 µM (A2a receptors; [8]): < 10%

Compound: CCOC(=O)C1=C(c2ccccc2)NC(C)=C(C(=O)OCC2COC(C)(C)O2)C1C#Cc1ccccc1 (centres unmarked) [Compound 209a]
- inhibition at 100 µM (A1 receptors; Table 14, read-out: % inhibition rA1): 32 ± 4%
- inhibition at 100 µM (A2a receptors; Table 14, read-out: displacement of specific binding rA2A): < 10%

Compound: CCCOC(=O)C1=C(C)NC(c2ccccc2)=C(C(=O)OCc2ccccc2)C1C#Cc1ccccc1 (racemic) [Compound 124, 3-Propyl 5-benzyl 2-methyl-4-phenylethynyl-6-phenyl-1,4-(±)-dihydropyridine-3,5-dicarboxylate]
- inhibition at 100 µM (A1 receptors; [4]): 27 ± 7%
- inhibition at 100 µM (A2a receptors; [5]): 16%

Compound: CCOC(=O)C1=C(C)NC(c2ccccc2)=C(C(=O)OCc2ccccc2C)C1C#Cc1ccccc1 (racemic) [Compound 122a]
- inhibition at 100 µM (A1 receptors; [4]): 16 ± 1%
- inhibition at 100 µM (A2a receptors; [5]): 13%

Compound: CCOC(=O)C1=C(C)NC(c2ccccc2)=C(C(=O)OC(C)(C)C)C1C#Cc1ccccc1 (racemic) [Compound 127, 3-Ethyl 5-t-butyl 2-methyl-4-phenylethynyl-6-phenyl-1,4-(±)-dihydropyridine-3.5-dicarboxylate]
- Ki (A1 receptors; Table 12, [3H]R-PIA): 25300 nM
- inhibition at 100 µM (A2a receptors; [5]): 27 ± 5%

Compound: CCOC(=O)C1=C(c2ccccc2)NC(C)=C(C(=O)OCc2ccccc2)C1/C=C/c1ccccc1 (centres unmarked) [Compound 105]
- inhibition at 100 µM (A1 receptors; [7]): < 10%
- inhibition at 100 µM (A2a receptors; [10]): 16 ± 11%

- Ki (human A3 receptors; [11]): 54 ± 13.1 nM
Compound: Nc1nc2ccc(Cl)cc2c2nc(-c3ccc(Br)o3)nn12 [Compound 157]

- Ki (human A3 receptors; Table 5, [125I]AB-MECA, HEK-293 membranes, read-out: Ki hA3): 3950 nM
Compound: CCCOc1c2ccoc2cc2oc(/C=C/c3ccccc3)cc(=O)c12 [Compound 21, 4-propyloxy-7-trans-styryl-visnagin]

Compound: O=C1CC(c2ccccc2O)Oc2ccccc21 (centres unmarked) [Compound 13, reference compound]
- Ki (A1 receptors; Table 4, [3H]PIA): 2640 ± 560 nM
- Ki (A2a receptors; Table 4, [3H]CGS 21680, rat striatal membranes, read-out: Ki rA2a): 17600 ± 2100 nM

Compound: 9-Chloro-2-(2-furyl)-5-(4'-iodobenzoyl)amino[1,2,4]triazolo [1,5-c]quinazoline [Compound 152]
- Ki (human A3 receptors; [11]): 23.8 ± 5.2 nM

- Ki (human A3 receptors; Table 12, [125I]AB-MECA, HEK membranes, read-out: Ki hA3): 10 nM
Compound: CCOC(=O)C1=C(C)NC(c2ccccc2)=C(C(=O)OCc2ccc(C(=O)NCCN)cc2)C1C#Cc1ccccc1 (centres unmarked) [Compound 123]

Compound: CCOC(=O)C1=C(C)NC(c2ccccc2)=C(C(=O)OCc2ccccc2)C1/C=C/c1ccccc1 (centres unmarked) [Compound 99]
- inhibition at 100 µM (A1 receptors; [9]): 35 ± 3%
- inhibition at 100 µM (A2a receptors; [10]): 15%

Compound: CC(C)(C)OC(=O)Nc1nc2ccc(Cl)cc2c2nc(-c3ccco3)nn12 [Compound 150, 5-[(tert.-Butoxycarbonyl)amino]-9-chloro-2-(2-furyl)[1,2,4]triazolo[1,5-c]quinazoline]
- Ki (A1 receptors; Table 15, [3H]PIA): 190 ± 16 nM
- Ki (A2a receptors; Table 15, [3H]CGS 21680, rat striatal membranes, read-out: Ki rA2A): 92 ± 8 nM

Compound: COc1cc(O)c2c(c1)O[C@H](c1ccc(O)cc1)CC2=O [Compound 42, sakuranetin, reference compound]
- Ki (human A3 receptors; Table 7, [125I]AB-MECA, HEK-293 membranes, read-out: Ki (hA3)): 3400 ± 180 nM

Compound: CCOC(=O)C1=C(C)NC(c2ccccc2)=C(C(=O)OCc2cccc(C)c2)C1C#Cc1ccccc1 (racemic) [Compound 122b, 3-Ethyl 5-(3-methylbenzyl)-4-phenylethynyl-6-phenyl-1,4(±)-dihydropyridine-3.5-dicarboxylate]
- inhibition at 100 µM (A1 receptors; [6]): < 10%
- inhibition at 100 µM (A2a receptors; [5]): 16 ± 2%

Compound: COc1cc(O)c2c(=O)c(O)c(-c3ccc(O)c(O)c3)oc2c1 [Compound 36, rhamnetin, reference compound]
- Ki (human A3 receptors; Table 6, [125I]AB-MECA, HEK-293 membranes, read-out: K2 (hA3)): 1380 ± 180 nM

Compound: CCOC(=O)C1=C(C)NC(c2ccccc2)=C(C(=O)OCc2cccc(I)c2)C1C#Cc1ccccc1 (centres unmarked) [Compound 122e]
- inhibition at 100 µM (A1 receptors; [4]): 14%
- inhibition at 100 µM (A2a receptors; [5]): 19 ± 7%

Compound: CCOC(=O)C1=C(C)NC(c2ccccc2)=C(C(=O)OCc2ccc(C)cc2)C1C#Cc1ccccc1 (racemic) [Compound 122c]
- inhibition at 100 µM (A1 receptors; [6]): < 10%
- inhibition at 100 µM (A2a receptors; [5]): 17 ± 3%

Compound: O=c1cc(-c2ccccc2)oc2ccccc12 [Compound 11a, flavone, reference compound]
- Ki (A1 receptors; Table 3, [3H]PIA): 3280 ± 920 nM
- Ki (A2a receptors; [1]): 3450 ± 1160 nM

Compound: Nc1nc2ccc(Cl)cc2c2nc(-c3ccco3)nn12 [Compound 144, reference compound]
- Ki (human A3 receptors; read-out: Ki hA3): 13.8 ± 2.4 nM

- Ki (human A3 receptors; [3]): < 100 nM
Compound: CCOC(=O)C1=C(C)NC(c2ccccc2)=C(C(=O)OCc2ccccc2)C1C#Cc1ccc([N+](=O)[O-])cc1 (centres unmarked) [Compound 102]

Compound: CCOCN1C(C)=C(C(=O)OCC)C(C#Cc2ccccc2)C(C(=O)OCC[Si](C)(C)C)=C1c1ccccc1 (racemic) [Compound 138, 1-Ethoxymethyl 3-ethyl 5-(2-trimethylsilyl)-ethyl 2-methyl-4-phenylethynyl-6-phenyl-1,4-(±)-dihydropyridine-3,5-dicarboxylate]
- inhibition at 100 µM (A1 receptors; [4]): 13 ± 3%
- inhibition at 100 µM (A2a receptors; [5]): 19%

- Ki (human A3 receptors; [2]): 4 nM
Compound: Nc1ccc(CC(=O)Nc2nc3ccc(Cl)cc3c3nc(-c4ccco4)nn23)cc1 [Compound 163]
